Values of other authors as cited in publication PMC3653294 (Bioorganic & medicinal chemistry, 2013).

System: liver fibrosis

Which “effect on liver fibrosis” value does the source give for CCOc1nc2cccc(C(=O)O)c2n1Cc1ccc(-c2ccccc2-c2nnn[nH]2)cc1 [Candesartan] here?
Its value is “decreases liver fibrosis”.
